Literature values in patent publication US20230235017A1, “A DRUG SCREENING PLATFORM FOR ENDOSOMAL ENHANCERS TO TREAT ALZHEIMER'S DISEASE” (Aarhus Universitet, priority 2020, published 2023).

Test system: endosomal activity
Conditions: shown in the literature (Mecozzi 2014); cited from earlier work

N=C(N)SCc1ccc(CSC(=N)N)s1 [R55]
effect on endosomal activity: have an effect on endosomal activity
